Data on 15 compounds can be found in PubChem BioAssay (NCI).

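The compound was tested at five concentrations on cells cultured in 96-well plates, with a 48-hour exposure period. Definition used: TGI = concentration required for complete inhibition of growth.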

Some test systems named below: A498 renal; A549 NSCLC; HCT-15 colon; HOP-92 NSCLC; SK-MEL-5 melanoma; SW-620 colon; UACC-257 melanoma; UACC-62 melanoma; IGROV1 ovarian; NCI-H226 lung.
Assay in all cases: NCI tumour cell line growth inhibition, 48 h

As to `Cc1cc(-c2nc3cc(F)c(F)cc3s2)ccc1N`, the TGI in the experiment on A498 renal, in the experiment on A549 NSCLC, in the experiment with HCT-15 colon, with HOP-92 NSCLC, with SK-MEL-5 melanoma and with SW-620 colon was greater than 100 µM throughout. The TGI with UACC-257 melanoma and with UACC-62 melanoma was greater than 100 µM throughout.
As to `O=C(Nc1c(Cl)cc([N+](=O)[O-])cc1Cl)/C(=N\Nc1cccc(Cl)c1)c1c(O)c2ccccc2oc1=O`, the TGI was 91.4 µM with A498 renal; greater than 100 µM in the experiment on A549 NSCLC; greater than 100 µM in the experiment on IGROV1 ovarian; greater than 100 µM with SK-MEL-5 melanoma; greater than 100 µM in the experiment on SW-620 colon; greater than 100 µM with UACC-257 melanoma. Besides, in the experiment with UACC-62 melanoma, the TGI is greater than 100 µM.
Regarding `CCN(CC)CCOc1ccc(C(=C2CCCCC2)c2ccc(OCCN(CC)CC)cc2)cc1`, the TGI with A498 renal stood at 3.8 µM; in the experiment with A549 NSCLC, 3.16 µM; with HCT-15 colon, 2.91 µM; in the experiment on HOP-92 NSCLC, 3.94 µM; in the experiment on IGROV1 ovarian, 3.58 µM; in the experiment with NCI-H226 lung it was 4.26 µM. Besides, the TGI in the experiment with SK-MEL-5 melanoma is 2.95 µM; in the experiment on SW-620 colon, 2.5 µM; with UACC-257 melanoma, 3.32 µM.
In the case of `CCc1n[nH]c(=O)n1NC(=O)/C=C\C(=O)O`, the TGI in the experiment with A498 renal, in the experiment with A549 NSCLC, in the experiment with HCT-15 colon, in the experiment with IGROV1 ovarian, with NCI-H226 lung and with SK-MEL-5 melanoma was greater than 100 µM throughout. In addition, the TGI in the experiment with UACC-257 melanoma and with UACC-62 melanoma was greater than 100 µM each time.
Consider `C[C@@H]1OC(=O)/C(=C\N(C)C)[C@H]2CC(=O)N(CCc3cn(S(=O)(=O)C(F)(F)F)c4ccccc34)C[C@H]12`, for which the TGI in the experiment on A498 renal, in the experiment on A549 NSCLC, in the experiment on HCT-15 colon, in the experiment with HOP-92 NSCLC, in the experiment on IGROV1 ovarian and in the experiment with NCI-H226 lung was greater than 100 µM in each case. The TGI with SK-MEL-5 melanoma, in the experiment on SW-620 colon and with UACC-257 melanoma was greater than 100 µM in each case.
In the case of `CC(C)(C)NC1C2CCC(C)(C1O)C2(C)C` (stereo unspecified), the TGI in the experiment on A498 renal is 5.19 µM; in the experiment with A549 NSCLC it was greater than 100 µM; with HCT-15 colon, greater than 100 µM; in the experiment with IGROV1 ovarian it was greater than 100 µM; in the experiment on SK-MEL-5 melanoma, greater than 100 µM; with SW-620 colon it was greater than 100 µM. For the same compound, the results for the TGI in the experiment on UACC-257 melanoma and in the experiment with UACC-62 melanoma were greater than 100 µM and 12.5 µM, respectively.
With `Cc1ccc(C2=C(c3ccccc3)C(O)(c3ccc(C)cc3)C(c3ccccc3)=C2c2ccc(C)cc2)cc1`, the TGI with A498 renal, in the experiment with A549 NSCLC, in the experiment with HCT-15 colon, in the experiment on HOP-92 NSCLC, with IGROV1 ovarian and with SK-MEL-5 melanoma was greater than 100 µM throughout. Further, the TGI in the experiment with SW-620 colon, in the experiment with UACC-257 melanoma and in the experiment with UACC-62 melanoma was greater than 100 µM each time.
As to `Cc1ccc(C)c(NC(=O)C(Cc2c[nH]c3ccccc23)NC(=O)OCc2ccccc2)c1` (stereo unspecified), the TGI in the experiment on A498 renal was greater than 100 µM; with A549 NSCLC, 26.1 µM; with HCT-15 colon, greater than 100 µM; with HOP-92 NSCLC, 57.5 µM; with IGROV1 ovarian it was 70.8 µM; in the experiment on SK-MEL-5 melanoma it was 34.5 µM. The results for the TGI in the experiment on SW-620 colon, in the experiment on UACC-257 melanoma and with UACC-62 melanoma were 35.5 µM, 34.3 µM and 59.7 µM, respectively.
As for `Cc1cc2[nH]c3c(C#N)c(-c4ccccc4)c(CN4CCOCC4)c(=O)n3c2cc1C`, the TGI with A498 renal, in the experiment on A549 NSCLC, in the experiment with HCT-15 colon, with NCI-H226 lung, with SW-620 colon and in the experiment with UACC-257 melanoma was greater than 100 µM in each case.
For `CCCCCCCCCCCCP(=O)(O)OCC(N)C(=O)O` (stereo unspecified), the TGI in the experiment on A498 renal is 70.6 µM; in the experiment on A549 NSCLC, greater than 100 µM; with HCT-15 colon it was 41.3 µM; with HOP-92 NSCLC, 71.6 µM; with IGROV1 ovarian, greater than 100 µM; in the experiment on NCI-H226 lung, greater than 100 µM. For the same compound, the TGI in the experiment on SK-MEL-5 melanoma, in the experiment on SW-620 colon and in the experiment on UACC-257 melanoma was greater than 100 µM in each case.
Take `CP(C)(=S)P(C)(C)=S`: the TGI in the experiment with A549 NSCLC, with HCT-15 colon, in the experiment with IGROV1 ovarian, in the experiment on NCI-H226 lung, with SK-MEL-5 melanoma and in the experiment on SW-620 colon was greater than 100 µM in each case. The TGI with UACC-257 melanoma and with UACC-62 melanoma was greater than 100 µM in each case.
`CCOC(=O)c1cc(-c2ccc(Cl)cc2)c([N+](=O)[O-])n1C`: the TGI in the experiment with A549 NSCLC, in the experiment with HCT-15 colon, in the experiment on HOP-92 NSCLC, in the experiment with IGROV1 ovarian, in the experiment on NCI-H226 lung and with UACC-257 melanoma was greater than 10 µM in each case.
Turning to `O=c1[nH]c(=O)n(C2CC(O)C(CO)O2)cc1C#Cc1cc(F)cc(F)c1` (stereo unspecified), the TGI in the experiment with A549 NSCLC, in the experiment with HCT-15 colon, with IGROV1 ovarian, with NCI-H226 lung, with SK-MEL-5 melanoma and in the experiment with SW-620 colon was greater than 100 µM in each case. The TGI in the experiment with UACC-257 melanoma and in the experiment on UACC-62 melanoma was greater than 100 µM in each case.
For the compound `NC(CCCCNC(=O)C(Cc1ccccc1)NC(=O)OCc1ccccc1)C(=O)NC(CCCCNC(=O)C(Cc1ccccc1)NC(=O)OCc1ccccc1)C(=O)NC(CCCCNC(=O)C(Cc1ccccc1)NC(=O)OCc1ccccc1)C(=O)NC(CCCCNC(=O)C(Cc1ccccc1)NC(=O)OCc1ccccc1)C(=O)NC(CCCCNC(=O)C(Cc1ccccc1)NC(=O)OCc1ccccc1)C(=O)NC(CCCCNC(=O)C(Cc1ccccc1)NC(=O)OCc1ccccc1)C(=O)O` (stereo unspecified), the TGI with A549 NSCLC, in the experiment with HCT-15 colon, with IGROV1 ovarian, in the experiment on NCI-H226 lung, in the experiment with SK-MEL-5 melanoma and in the experiment with SW-620 colon was greater than 100 µM throughout. In addition, the TGI with UACC-257 melanoma and in the experiment on UACC-62 melanoma was greater than 100 µM throughout.
Take `COC(=O)C(Cc1nc2ccccc2[nH]c1=O)C(=O)C(=O)Nc1ccc(OC)cc1[N+](=O)[O-]` (stereo unspecified): the TGI in the experiment with A549 NSCLC, with HCT-15 colon, in the experiment on HOP-92 NSCLC, in the experiment with IGROV1 ovarian, in the experiment with NCI-H226 lung and in the experiment with SK-MEL-5 melanoma was greater than 100 µM throughout. Besides, the TGI with SW-620 colon, in the experiment with UACC-257 melanoma and in the experiment on UACC-62 melanoma was greater than 100 µM each time.
